The text below walks through data of US9732119B2, “Immunomodulators” (BRISTOL-MYERS SQUIBB COMPANY, priority 2014, dated 2017).

The term pIC50 denotes the negative decadic logarithm of the IC50, by convention in mol/L. Read a high pIC50 as a low IC50.

This assay has as its target T1, PD-1-Ig binding to PD-L1-TVMV-His (PD-L1-His) (Homo sapiens, UniProt Q9NZQ7).
T1 construct: hPDL1(19-239)-TVMV-His; made in house; host or cells: HEK293T cells
The experiment in a line: PD-1/PD-L1 Homogenous Time-Resolved Fluorescence (HTRF) binding assay. The conditions noted are these: PD-1-Ig (20 nM) / PD-L1-His (10 nM); range classes. From the text: The ability of the macrocyclic peptides of the present disclosure to bind to PD-L1 was investigated using a PD-1/PD-L1 Homogenous Time-Resolved Fluorescence (HTRF) binding assay.
Homogenous Time-Resolved Fluorescence (HTRF) Assays of Binding of Soluble PD-1 to Soluble PD-L1. Soluble PD-1 and soluble PD-L1 refers to proteins with carboxyl-end truncations that remove the transmembrane-spanning regions and are fused to heterologous sequences, specifically the Fc portion of the human immunoglobuling G sequence (Ig) or the hexahistidine epitope tag (His). All binding studies were performed in an HTRF assay buffer consisting of dPBS supplemented with 0.1% (w/v) bovine serum albumin and 0.05% (v/v) Tween-20. For the PD-1-Ig/PD-L1-His binding assay, inhibitors were pre-incubated with PD-L1-His (10 nM final) for 15 m in 4 μl of assay buffer, followed by addition of PD-1-Ig (20 nM final) in 1 μl of assay buffer and further incubation for 15 m. PD-L1 fusion proteins from either human, cynomologous macaques, mouse, or other species were used. HTRF detection was achieved using europium crypate-labeled anti-Ig monoclonal antibody (1 nM final) and allophycocyanin (APC) labeled anti-His monoclonal antibody (20 nM final). Antibodies were diluted in HTRF detection buffer and 5 μl was dispensed on top of binding reaction. […] Additional binding assays were established between PD-1-Ig/PD-L2-His (20 and 5 nM, respectively), CD80-His/PD-L1-Ig (100 and 10 nM, respectively) and CD80-His/CTLA4-Ig (10 and 5 nM, respectively).
Recombinant Proteins. […] Human PD-L2-His (Sino Biologicals), CD80-His (Sino Biologicals), CTLA4-Ig (RnD Systems) were all obtained through commercial sources.
On the technique in general: Time-resolved FRET reads energy transfer from a long-lived donor to a nearby acceptor.

Each structure is given as a SMILES string. pIC50: −log10 of the molar value. Non-standard residues stand in square brackets, D forms with d. Residues, ends and D or L forms follow the SMILES beside them. Trp(1-CH2COOH) = N[C@@H](Cc1cn(CC(=O)O)c2ccccc12)C(=O)O; Hyp = O=C(O)[C@@H]1C[C@@H](O)CN1; NMeNle = CCCC[C@H](NC)C(=O)O; NMeA = CN[C@@H](C)C(=O)O; Dab = NCC[C@H](N)C(=O)O; Dap = NC[C@H](N)C(=O)O; GABA = NCCCC(=O)O; βAla = NCCC(=O)O

T1 sequence (Q9NZQ7 with tags, fused parts or gaps): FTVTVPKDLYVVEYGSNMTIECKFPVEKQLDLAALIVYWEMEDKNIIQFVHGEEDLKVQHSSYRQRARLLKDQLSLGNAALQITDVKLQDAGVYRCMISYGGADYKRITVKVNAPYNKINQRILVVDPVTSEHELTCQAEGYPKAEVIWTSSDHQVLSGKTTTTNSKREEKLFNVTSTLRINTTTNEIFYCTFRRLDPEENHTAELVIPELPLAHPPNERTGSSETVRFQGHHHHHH

Consider `CCCC[C@H]1C(=O)N(C)[C@@H](CCCC)C(=O)N[C@@H](CC(C)C)C(=O)N[C@H](C(=O)NCC(N)=O)CNCC(=O)N[C@@H](Cc2ccc(O)cc2)C(=O)N(C)[C@@H](C)C(=O)N[C@@H](CC(N)=O)C(=O)N2CCC[C@H]2C(=O)N[C@@H](CN)C(=O)N[C@@H](CC(C)C)C(=O)N2C[C@H](O)C[C@H]2C(=O)N[C@@H](Cc2c[nH]c3ccccc23)C(=O)N[C@@H](CCCN)C(=O)N[C@@H](Cc2cn(CC(=O)O)c3ccccc23)C(=O)N1C` [Example 1036], for which the pIC50 is 8.00 to 9.00.
The figure for `CCCC[C@H]1C(=O)N(C)[C@@H](CCCC)C(=O)N[C@@H](CC(C)C)C(=O)N[C@H](C(=O)NCC(N)=O)CNCC(=O)N[C@@H](Cc2ccc(O)cc2)C(=O)N2CCCC[C@H]2C(=O)N[C@@H](CC(N)=O)C(=O)N2CCC[C@H]2C(=O)N[C@@H](CN)C(=O)N[C@@H](CC(C)C)C(=O)N2C[C@H](O)C[C@H]2C(=O)N[C@@H](Cc2c[nH]c3ccccc23)C(=O)N[C@@H](CCN)C(=O)N[C@@H](Cc2cn(CC(=O)O)c3ccccc23)C(=O)N1C` [Example 1037] is 8.00 to 9.00; for `CCCC[C@H]1C(=O)N(C)[C@@H](CCCC)C(=O)N[C@@H](CC(C)C)C(=O)N[C@H](C(N)=O)CNCC(=O)N[C@@H](Cc2ccc(O)cc2)C(=O)N2CCCC[C@H]2C(=O)N[C@@H](CC(N)=O)C(=O)N2CCC[C@H]2C(=O)N[C@@H](CN)C(=O)N[C@@H](CC(C)C)C(=O)N2C[C@H](O)C[C@H]2C(=O)N[C@@H](Cc2c[nH]c3ccccc23)C(=O)N[C@@H](CCN)C(=O)N[C@@H](Cc2cn(CC(=O)O)c3ccccc23)C(=O)N1C` [Example 1038] it is 8.00 to 9.00; for `CCCC[C@H]1C(=O)N(C)[C@@H](CCCC)C(=O)N[C@@H](CC(C)C)C(=O)N[C@H](C(=O)NCC(N)=O)CNCC(=O)N[C@@H](Cc2ccc(OC)cc2)C(=O)N(C)[C@@H](C)C(=O)N[C@@H](CC(N)=O)C(=O)N2CCC[C@H]2C(=O)N[C@@H](CN)C(=O)N[C@@H](CC(C)C)C(=O)N2C[C@H](O)C[C@H]2C(=O)N[C@@H](Cc2c[nH]c3ccccc23)C(=O)N[C@@H](CCN)C(=O)N[C@@H](Cc2cn(CC(=O)O)c3ccccc23)C(=O)N1C` [Example 1039] it is 8.00 to 9.00.
The figure for `CCCC[C@H]1C(=O)N(C)[C@@H](CCCC)C(=O)N[C@@H](CC(C)C)C(=O)N[C@H](C(=O)NCC(N)=O)CNCC(=O)N[C@@H](Cc2ccc(OC)cc2)C(=O)N2CCCC[C@H]2C(=O)N[C@@H](CC(N)=O)C(=O)N2CCC[C@H]2C(=O)N[C@@H](CN)C(=O)N[C@@H](CC(C)C)C(=O)N2C[C@H](O)C[C@H]2C(=O)N[C@@H](Cc2c[nH]c3ccccc23)C(=O)N[C@@H](CCN)C(=O)N[C@@H](Cc2cn(CC(=O)O)c3ccccc23)C(=O)N1C` [Example 1040] is 8.00 to 9.00; for `CCCC[C@H]1C(=O)N(C)[C@@H](CCCC)C(=O)N[C@@H](CC(C)C)C(=O)N[C@H](C(=O)NCC(N)=O)CNCC(=O)N[C@@H](Cc2ccc(OC)cc2)C(=O)N(C)[C@@H](C)C(=O)N[C@@H](CC(N)=O)C(=O)N2CCC[C@H]2C(=O)N[C@@H](CN)C(=O)N[C@@H](CCC(=O)O)C(=O)N2C[C@H](O)C[C@H]2C(=O)N[C@@H](Cc2c[nH]c3ccccc23)C(=O)N[C@@H](CCN)C(=O)N[C@@H](Cc2cn(CC(=O)O)c3ccccc23)C(=O)N1C` [Example 1041] it is 8.00 to 9.00.
The value for `CCCC[C@H]1C(=O)N(C)[C@@H](CCCC)C(=O)N[C@@H](CC(C)C)C(=O)N[C@H](C(N)=O)CNCC(=O)N[C@@H](Cc2ccc(OC)cc2)C(=O)N2CCCC[C@H]2C(=O)N[C@@H](CC(N)=O)C(=O)N2CCC[C@H]2C(=O)N[C@@H](CN)C(=O)N[C@@H](CC(C)C)C(=O)N2C[C@H](O)C[C@H]2C(=O)N[C@@H](Cc2c[nH]c3ccccc23)C(=O)N[C@@H](CCN)C(=O)N[C@@H](Cc2cn(CC(=O)O)c3ccccc23)C(=O)N1C` [Example 1042] was 7.00 to 8.00.
The compound `CCCC[C@H]1C(=O)N(C)[C@@H](CCCC)C(=O)N[C@@H](CC(C)C)C(=O)NCC(=O)NCC(=O)N[C@@H](Cc2ccc(O)cc2)C(=O)N(C)[C@@H](C)C(=O)N[C@@H](CC(N)=O)C(=O)N2CCC[C@H]2C(=O)N[C@@H](CN)C(=O)N[C@@H](CC(C)C)C(=O)N2C[C@H](O)C[C@H]2C(=O)N[C@@H](Cc2c[nH]c3ccccc23)C(=O)N[C@@H](CCN)C(=O)N[C@@H](Cc2c[nH]c3ccccc23)C(=O)N1C` [Example 5001] (cyclo([Dab]W[NMeNle][NMeNle]LGGY[NMeA]NP[Dap]L[Hyp]W)) showed a pIC50 of 8.00 to 9.00.
The value for `CCCC[C@H]1C(=O)N(C)[C@@H](CCCC)C(=O)N[C@@H](CC(C)C)C(=O)NCC(=O)NCC(=O)N[C@@H](Cc2ccc(O)cc2)C(=O)N(C)[C@@H](C)C(=O)N[C@@H](CC(N)=O)C(=O)N2CCC[C@H]2C(=O)N[C@@H](CN)C(=O)N[C@@H](CC(C)C)C(=O)N2C[C@H](O)C[C@H]2C(=O)N[C@@H](Cc2c[nH]c3ccccc23)C(=O)N[C@@H](CCN)C(=O)N[C@@H](Cc2cn(CC(=O)O)c3ccccc23)C(=O)N1C` [Example 5002] (cyclo([Dab][Trp(1-CH2COOH)][NMeNle][NMeNle]LGGY[NMeA]NP[Dap]L[Hyp]W)) was 8.00 to 9.00.
As to `CCCC[C@H]1C(=O)N(C)[C@@H](CCCC)C(=O)N[C@@H](CC(C)C)C(=O)NCCC(=O)N[C@@H](Cc2ccc(O)cc2)C(=O)N(C)[C@@H](C)C(=O)N[C@@H](CC(N)=O)C(=O)N2CCC[C@H]2C(=O)N[C@@H](Cc2c[nH]cn2)C(=O)N[C@@H](CC(C)C)C(=O)N2C[C@H](O)C[C@H]2C(=O)N[C@@H](Cc2c[nH]c3ccccc23)C(=O)NCC(=O)N[C@@H](Cc2c[nH]c3ccccc23)C(=O)N1C` [Example 5003] (cyclo(GW[NMeNle][NMeNle]L[βAla]Y[NMeA]NPHL[Hyp]W)), the pIC50 is 5.00 to 7.00.
The figure for `CCCC[C@H]1C(=O)N(C)[C@@H](CCCC)C(=O)N[C@@H](CC(C)C)C(=O)NCC(=O)NCCC(=O)N[C@@H](Cc2ccc(O)cc2)C(=O)N(C)[C@@H](C)C(=O)N[C@@H](CC(N)=O)C(=O)N2CCC[C@H]2C(=O)N[C@@H](Cc2c[nH]cn2)C(=O)N[C@@H](CC(C)C)C(=O)N2C[C@H](O)C[C@H]2C(=O)N[C@@H](Cc2c[nH]c3ccccc23)C(=O)NCC(=O)N[C@@H](Cc2c[nH]c3ccccc23)C(=O)N1C` [Example 5004] (cyclo(GW[NMeNle][NMeNle]LG[βAla]Y[NMeA]NPHL[Hyp]W)) is 5.00 to 7.00; for `CCCC[C@H]1C(=O)N(C)[C@@H](CCCC)C(=O)N[C@@H](CC(C)C)C(=O)NCCCC(=O)NCC(=O)N[C@@H](Cc2ccc(O)cc2)C(=O)N(C)[C@@H](C)C(=O)N[C@@H](CC(N)=O)C(=O)N2CCC[C@H]2C(=O)N[C@@H](Cc2c[nH]cn2)C(=O)N[C@@H](CC(C)C)C(=O)N2C[C@H](O)C[C@H]2C(=O)N[C@@H](Cc2c[nH]c3ccccc23)C(=O)NCC(=O)N[C@@H](Cc2c[nH]c3ccccc23)C(=O)N1C` [Example 5005] (cyclo(GW[NMeNle][NMeNle]L[GABA]GY[NMeA]NPHL[Hyp]W)) it is 5.00 to 7.00.
The figure for `CCCC[C@H]1C(=O)N(C)[C@@H](CCCC)C(=O)N[C@@H](CC(C)C)C(=O)N[C@@H](C)C(=O)NCC(=O)N[C@@H](Cc2ccc(O)cc2)C(=O)N(C)[C@@H](C)C(=O)N[C@@H](CC(N)=O)C(=O)N2CCC[C@H]2C(=O)N[C@@H](CN)C(=O)N[C@@H](CC(C)C)C(=O)N2C[C@H](O)C[C@H]2C(=O)N[C@@H](Cc2c[nH]c3ccccc23)C(=O)N[C@@H](CCN)C(=O)N[C@@H](Cc2c[nH]c3ccccc23)C(=O)N1C` [Example 5006] (cyclo(AGY[NMeA]NP[Dap]L[Hyp]W[Dab]W[NMeNle][NMeNle]L)) is 7.00 to 8.00; for `CCCC[C@H]1C(=O)N(C)[C@@H](CCCC)C(=O)N[C@@H](CC(C)C)C(=O)N[C@H](C)C(=O)NCC(=O)N[C@@H](Cc2ccc(O)cc2)C(=O)N(C)[C@@H](C)C(=O)N[C@@H](CC(N)=O)C(=O)N2CCC[C@H]2C(=O)N[C@@H](CN)C(=O)N[C@@H](CC(C)C)C(=O)N2C[C@H](O)C[C@H]2C(=O)N[C@@H](Cc2c[nH]c3ccccc23)C(=O)N[C@@H](CCN)C(=O)N[C@@H](Cc2c[nH]c3ccccc23)C(=O)N1C` [Example 5007] (cyclo([Dab]W[NMeNle][NMeNle]L[dA]GY[NMeA]NP[Dap]L[Hyp]W)) it is 8.00 to 9.00; for `CCCC[C@H]1C(=O)N(C)[C@@H](CCCC)C(=O)N[C@@H](CC(C)C)C(=O)N2CCC[C@@H]2C(=O)NCC(=O)N[C@@H](Cc2ccc(O)cc2)C(=O)N(C)[C@@H](C)C(=O)N[C@@H](CC(N)=O)C(=O)N2CCC[C@H]2C(=O)N[C@@H](CN)C(=O)N[C@@H](CC(C)C)C(=O)N2C[C@H](O)C[C@H]2C(=O)N[C@@H](Cc2c[nH]c3ccccc23)C(=O)N[C@@H](CCN)C(=O)N[C@@H](Cc2c[nH]c3ccccc23)C(=O)N1C` [Example 5008] (cyclo([Dab]W[NMeNle][NMeNle]L[dP]GY[NMeA]NP[Dap]L[Hyp]W)) it is 8.00 to 9.00.
